Target: T1, rPAPD5 (Homo sapiens, UniProt Q8NDF8)
T1 construct: made in house
Assay: differential scanning fluorimetry (DSF) binding and stabilization of rPAPD5
Conditions: 100 μM test compound; shift vs DMSO control; read-out: ΔTm at 100 μM
Method in brief: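 Compound-induced shifts in rPAPD5 melting temperature were determined by thermal shift (DSF). Protein at […] was mixed with a non-extendable ATP analog […] in Tris-HCl (25 mM), MgCl2 (5 mM) and KCl (50 mM), with SYPRO orange at 1:5000. Curves were averages of three measurements analyzed with Thermal Shift software, and ΔTm was referenced to DMSO.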

T1 sequence (Q8NDF8 68-698 isoform Q8NDF8-5 limits assumed): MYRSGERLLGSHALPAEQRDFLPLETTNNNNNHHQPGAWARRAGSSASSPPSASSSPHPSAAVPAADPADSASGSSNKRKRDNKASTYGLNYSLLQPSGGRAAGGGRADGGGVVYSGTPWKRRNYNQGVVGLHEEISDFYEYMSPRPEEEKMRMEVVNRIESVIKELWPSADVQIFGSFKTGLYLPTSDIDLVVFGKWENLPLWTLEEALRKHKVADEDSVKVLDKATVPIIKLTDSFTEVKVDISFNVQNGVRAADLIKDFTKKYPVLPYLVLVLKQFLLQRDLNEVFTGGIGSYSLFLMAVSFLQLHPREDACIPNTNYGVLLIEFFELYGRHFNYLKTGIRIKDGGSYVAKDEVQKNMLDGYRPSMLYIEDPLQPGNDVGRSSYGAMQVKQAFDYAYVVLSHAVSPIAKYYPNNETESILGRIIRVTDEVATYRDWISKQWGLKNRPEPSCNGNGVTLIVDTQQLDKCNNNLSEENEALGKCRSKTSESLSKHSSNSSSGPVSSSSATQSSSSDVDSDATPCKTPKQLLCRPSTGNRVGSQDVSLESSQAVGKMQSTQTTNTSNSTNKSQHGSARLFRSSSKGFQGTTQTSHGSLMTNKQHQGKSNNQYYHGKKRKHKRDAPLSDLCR

ΔTm at 100 µM [°C]	SMILES
< 1	O=C(O)c1ccccc1Nc1c(S(=O)(=O)N2CCOCC2)cnc2ccc(NC3CCOCC3)cc12 [Compound 237A, 2-[[3-morpholinosulfonyl-6-(tetrahydropyran-4-ylamino)-4-quinolyl]amino]benzoic acid]
1 to 5	O=C(O)c1ccccc1Nc1c(S(=O)(=O)N2CCOCC2)cnc2ccc(NC3CCC(F)(F)CC3)cc12 [Compound 238A, 2-[[6-[(4,4-difluorocyclohexyl)amino]-3-morpholinosulfonyl-4-quinolyl]amino]benzoic acid]
1 to 5	O=C(O)c1ccccc1Nc1c(S(=O)(=O)N2CCOCC2)cnc2ccc(NC3CCNCC3)cc12 [Compound 239A, 2-[[3-morpholinosulfonyl-6-(4-piperidylamino)-4-quinolyl]amino]benzoic acid]
1 to 5	O=C(O)c1ccccc1Nc1c(S(=O)(=O)N2CCOCC2)cnc2ccc(Nc3ccncc3)cc12 [Compound 240A, 2-[[3-morpholinosulfonyl-6-(4-pyridylamino)-4-quinolyl]amino]benzoic acid]
> 5	O=C(O)c1ccccc1Nc1c(S(=O)(=O)N2CCOCC2)cnc2ccc(Nc3ncco3)cc12 [Compound 241A, 2-[[3-morpholinosulfonyl-6-(oxazol-2-ylamino)-4-quinolyl]amino]benzoic acid]
1 to 5	O=C(O)c1ccccc1Nc1c(S(=O)(=O)N2CCOCC2)cnc2ccc(Nc3ccc4[nH]cnc4c3)cc12 [Compound 247A, 2-[[6-(1H-benzimidazol-5-ylamino)-3-morpholinosulfonyl-4-quinolyl]amino]benzoic acid]
1 to 5	O=C(O)c1ccccc1Nc1c(S(=O)(=O)N2CCOCC2)cnc2ccc(N3CCOCC3)cc12 [Compound 248A, 2-[(6-morpholino-3-morpholinosulfonyl-4-quinolyl)amino]benzoic acid]
> 5	NS(=O)(=O)c1ccc2ncc(S(=O)(=O)N3CCOCC3)c(Nc3ccccc3C(=O)O)c2c1 [Compound 249A, 2-[(3-morpholinosulfonyl-6-sulfamoyl-4-quinolyl)amino]benzoic acid]
> 5	O=C(O)c1ccccc1Nc1c(S(=O)(=O)N2CCOCC2)cnc2ccccc12 [Compound 250A, 2-[(3-morpholinosulfonyl-4-quinolyl)amino]benzoic acid]
< 1	O=C(O)c1c(Nc2c(S(=O)(=O)N3CCOCC3)cnc3ccc(Cl)cc23)cccc1-c1ncco1 [Compound 261A, 2-[(6-chloro-3-morpholinosulfonyl-4-quinolyl)amino]-6-oxazol-2-yl-benzoic acid]
> 5	O=C(O)c1cc(B(O)O)ccc1Nc1c(S(=O)(=O)N2CCOCC2)cnc2ccc(Cl)cc12 [Compound 263A, 5-borono-2-[(6-chloro-3-morpholinosulfonyl-4-quinolyl)amino]benzoic acid]
> 5	O=C(O)c1cc(O)ccc1Nc1c(S(=O)(=O)N2CCOCC2)cnc2ccc(Cl)cc12 [Compound 265A, 2-[(6-chloro-3-morpholinosulfonyl-4-quinolyl)amino]-5-hydroxy-benzoic acid]
< 1	O=C(O)c1cc(Br)ccc1Nc1c(S(=O)(=O)N2CCOCC2)cnc2ccc(Cl)cc12 [Compound 268A, 5-bromo-2-[(6-chloro-3-morpholinosulfonyl-4-quinolyl)amino]benzoic acid]
1 to 5	O=C(O)c1cc(C(F)(F)F)ccc1Nc1c(S(=O)(=O)N2CCOCC2)cnc2ccc(Cl)cc12 [Compound 271A, 2-[(6-chloro-3-morpholinosulfonyl-4-quinolyl)amino]-5-(trifluoromethyl)benzoic acid]
> 5	Cc1ccc(C(=O)O)c(Nc2c(S(=O)(=O)N3CCOCC3)cnc3ccc(Cl)cc23)c1 [Compound 272A, 2-[(6-chloro-3-morpholinosulfonyl-4-quinolyl)amino]-4-methyl-benzoic acid]
1 to 5	O=C(O)c1ccc(O)cc1Nc1c(S(=O)(=O)N2CCOCC2)cnc2ccc(Cl)cc12 [Compound 273A, 2-[(6-chloro-3-morpholinosulfonyl-4-quinolyl)amino]-4-hydroxy-benzoic acid]
